Measurements from patent US20240182508A1, “AMPHIPATHIC COMPOUND, PREPARATION METHOD THEREFOR, AND SURFACTANT COMPOSITION COMPRISING SAME” (priority 2022, published 2024).

Legend:
[1] = CMC (critical micelle concentration) from surface tension by the stalagmometric method; assay type: physicochemical; settings: graph of surface tension versus sample concentration
Procedure: The surface tension values of steviol bisglycoside (rebaudioside A) and steviol monoglycoside-acid, ester, and amide obtained in Examples 1, 4, and 5 were measured and compared at various concentrations using the stalagmometric method. In addition, through a graph of surface tension versus sample concentration, CMC was measured to be 5.14 mM (rebaudioside A), 1.1 mM (Example 1, steviolbioside), 0.15 mM (Example 4, rebaudioside B methyl ester), and 0.5 mM (Example 5, rebaudioside B n-hexylamide).

[2] = Foaming properties (foam maintained on standing, measuring cylinder); assay type: physicochemical; settings: 10 mg in 5 ml distilled water, shaken 10 seconds
Procedure: The foaming properties of steviol monoglycoside-ester obtained in Example 4 were confirmed. 5 ml of distilled water and 10 mg of steviol monoglycoside-ester obtained in Example 4 were mixed in a measuring cylinder to form micelles, then shaken for 10 seconds to generate foam, then allowed to stand at room temperature to compare the amount of foam.
Thereby, it was confirmed that about 50% of the foam was maintained after 15 minutes and about 30% of the foam was maintained after 30 minutes, based on the height of the foam.

| CMC [1] | foam maintained, based on the height of the foam ([2]; after 15 minutes at room temperature) | foam maintained, based on the height of the foam ([2]; after 30 minutes at room temperature) | Compound |
| --- | --- | --- | --- |
| 0.5 mM |  |  | C=C1C[C@@]23CC[C@H]4[C@@](C)(CCC[C@@]4(C)C(=O)NCCCCCC)[C@@H]2CC[C@]1(O[C@@H]1O[C@H](CO)[C@@H](O)[C@H](O[C@@H]2O[C@H](CO)[C@@H](O)[C@H](O)[C@H]2O)[C@H]1O[C@@H]1O[C@H](CO)[C@@H](O)[C@H](O)[C@H]1O)C3 [Example 5, rebaudioside B n-hexylamide] |
| 5.14 mM |  |  | C=C1C[C@@]23CC[C@H]4[C@@](C)(CCC[C@@]4(C)C(=O)O[C@@H]4O[C@H](CO)[C@@H](O)[C@H](O)[C@H]4O)[C@@H]2CC[C@]1(O[C@@H]1O[C@H](CO)[C@@H](O)[C@H](O[C@@H]2O[C@H](CO)[C@@H](O)[C@H](O)[C@H]2O)[C@H]1O[C@@H]1O[C@H](CO)[C@@H](O)[C@H](O)[C@H]1O)C3 [rebaudioside A, reference compound] |
| 0.15 mM | about 50% | about 30% | C=C1C[C@@]23CC[C@H]4[C@@](C)(CCC[C@@]4(C)C(=O)OC)[C@@H]2CC[C@]1(O[C@@H]1O[C@H](CO)[C@@H](O)[C@H](O[C@@H]2O[C@H](CO)[C@@H](O)[C@H](O)[C@H]2O)[C@H]1O[C@@H]1O[C@H](CO)[C@@H](O)[C@H](O)[C@H]1O)C3 [Example 4, rebaudioside B methyl ester] |

| Compound | CMC [1] | foam maintained, based on the height of the foam ([2]; after 15 minutes at room temperature) | foam maintained, based on the height of the foam ([2]; after 30 minutes at room temperature) |
| --- | --- | --- | --- |
| C=C1C[C@@]23CC[C@H]4[C@@](C)(CCC[C@@]4(C)C(=O)O)[C@@H]2CC[C@]1(O[C@@H]1O[C@H](CO)[C@@H](O)[C@H](O)[C@H]1O[C@@H]1O[C@H](CO)[C@@H](O)[C@H](O)[C@H]1O)C3 [Example 1, steviolbioside] | 1.1 mM |  |  |
